# Assay results from ChEMBL document CHEMBL4334464, “From Phenylthiazoles to Phenylpyrazoles: Broadening the Antibacterial Spectrum toward Carbapenem-Resistant Bacteria” (J Med Chem, 2019).
# Activity calls are given as the source filed them. The calls are words filed in the database; no cut-off is given here.
# Tested on: Acinetobacter baumannii
# Test: Ratio of MBC to MIC for Acinetobacter baumannii ATCC BAA 1747 clinical isolates
# Type: functional
# Settings: not given
row,Structure (SMILES),Ratio
1,CCCCCC#Cc1ccc(-n2ncc(/C(C)=N/NC3=NCCN3)c2C)cc1,>=1

# Tested on: not listed separately
# Test: Antibacterial activity against Enterobacter cloacae subsp. cloacae ATCC BAA-1143 clinical isolates after 18 to 20 hrs in aerobic condition by CLSI-based broth microdilution assay
# Type: functional
# Settings: not given
row,Structure (SMILES),MIC
1,CCCCCC#Cc1ccc(-n2ncc(/C(C)=N/NC3=NCCN3)c2C)cc1,> 128 µg/mL

# Tested on: Staphylococcus aureus
# Test: Antibacterial activity against linezolid-resistant/Methicillin-resistant Staphylococcus aureus NRS119 clinical isolates after 18 to 20 hrs in aerobic condition by CLSI protocol based broth microdilution assay
# Type: functional
# Settings: not given
row,Structure (SMILES),MIC
1,CCCCCC#Cc1ccc(-n2ncc(/C(C)=N/NC3=NCCN3)c2C)cc1,2 µg/mL

# Tested on: Staphylococcus aureus
# Test: Antibacterial activity against vancomycin-resistant Staphylococcus aureus isolate 12 after 18 to 20 hrs in aerobic condition by CLSI-based broth microdilution assay
# Type: functional
# Settings: not given
row,Structure (SMILES),MIC
1,CCCCCC#Cc1ccc(-n2ncc(/C(C)=N/NC3=NCCN3)c2C)cc1,2 µg/mL

# Tested on: Staphylococcus aureus
# Test: Ratio of MBC to MIC for Methicillin-sensitive Staphylococcus aureus ATCC 6538 clinical isolates
# Type: functional
# Settings: not given
row,Structure (SMILES),Ratio
1,CCCCCC#Cc1ccc(-n2ncc(/C(C)=N/NC3=NCCN3)c2C)cc1,<=2

# Tested on: Pseudomonas aeruginosa
# Test: Ratio of MBC to MIC for Pseudomonas aeruginosa ATCC 15442 clinical isolates
# Type: functional
# Settings: not given
row,Structure (SMILES),Ratio
1,CCCCCC#Cc1ccc(-n2ncc(/C(C)=N/NC3=NCCN3)c2C)cc1,>=1

# Tested on: Enterococcus faecium
# Test: Antibacterial activity against vancomycin-resistant Enterococcus faecium ATCC 700221 clinical isolates after 18 to 20 hrs in aerobic condition by CLSI-based broth microdilution assay
# Type: functional
# Settings: not given
row,Structure (SMILES),MIC
1,CCCCCC#Cc1ccc(-n2ncc(/C(C)=N/NC3=NCCN3)c2C)cc1,2 µg/mL

# Tested on: Klebsiella pneumoniae
# Test: Ratio of MBC to MIC for Klebsiella pneumoniae BAA-1144 clinical isolates
# Type: functional
# Settings: not given
row,Structure (SMILES),Ratio
1,CCCCCC#Cc1ccc(-n2ncc(/C(C)=N/NC3=NCCN3)c2C)cc1,>=1

# Tested on: Shigella flexneri
# Test: Ratio of MBC to MIC for Shigella flexneri ATCC 9199 clinical isolates
# Type: functional
# Settings: not given
row,Structure (SMILES),Ratio
1,CCCCCC#Cc1ccc(-n2ncc(/C(C)=N/NC3=NCCN3)c2C)cc1,>=1

# Tested on: Staphylococcus aureus
# Test: Antibacterial activity against Methicillin-resistant Staphylococcus aureus USA700-NRS386 clinical isolates after 18 to 20 hrs in aerobic condition by CLSI protocol based broth microdilution assay
# Type: functional
# Settings: not given
row,Structure (SMILES),MIC
1,CCCCCC#Cc1ccc(-n2ncc(/C(C)=N/NC3=NCCN3)c2C)cc1,2 µg/mL

# Tested on: Staphylococcus aureus
# Test: Antibacterial activity against Methicillin-sensitive Staphylococcus aureus ATCC 6538 clinical isolates after 18 to 20 hrs in aerobic condition by CLSI protocol based broth microdilution assay
# Type: functional
# Settings: not given
row,Structure (SMILES),MIC
1,CCCCCC#Cc1ccc(-n2ncc(/C(C)=N/NC3=NCCN3)c2C)cc1,2 µg/mL

# Tested on: Acinetobacter baumannii
# Test: Antibacterial activity against Acinetobacter baumannii ATCC BAA 1141 clinical isolates after 18 to 20 hrs in aerobic condition by CLSI-based broth microdilution assay
# Type: functional
# Settings: not given
row,Structure (SMILES),MIC
1,CCCCCC#Cc1ccc(-n2ncc(/C(C)=N/NC3=NCCN3)c2C)cc1,> 128 µg/mL

# Tested on: Salmonella enterica
# Test: Ratio of MBC to MIC for Salmonella enterica NR-170 clinical isolates
# Type: functional
# Settings: not given
row,Structure (SMILES),Ratio
1,CCCCCC#Cc1ccc(-n2ncc(/C(C)=N/NC3=NCCN3)c2C)cc1,>=1

# Tested on: Salmonella enteritidis
# Test: Antibacterial activity against Salmonella enteritidis ATCC 14028 clinical isolates after 18 to 20 hrs in aerobic condition by CLSI-based broth microdilution assay
# Type: functional, Salmonella enterica subsp. enterica serovar Enteritidis
# Settings: Salmonella enterica
row,Structure (SMILES),MIC
1,CCCCCC#Cc1ccc(-n2ncc(/C(C)=N/NC3=NCCN3)c2C)cc1,> 128 µg/mL

# Tested on: Acinetobacter baumannii
# Test: Antibacterial activity against Acinetobacter baumannii ATCC 19606 clinical isolates after 18 to 20 hrs in aerobic condition by CLSI-based broth microdilution assay
# Type: functional
# Settings: ATCC 19606 = CIP 70.34 = JCM 6841
row,Structure (SMILES),MIC
1,CCCCCC#Cc1ccc(-n2ncc(/C(C)=N/NC3=NCCN3)c2C)cc1,8 µg/mL

# Tested on: Acinetobacter baumannii
# Test: Ratio of MBC to MIC for Acinetobacter baumannii NR 17786 clinical isolates
# Type: functional
# Settings: not given
row,Structure (SMILES),Ratio
1,CCCCCC#Cc1ccc(-n2ncc(/C(C)=N/NC3=NCCN3)c2C)cc1,>=1

# Tested on: Klebsiella pneumoniae
# Test: Ratio of MBC to MIC for Klebsiella pneumoniae BAA-1706 after 18 to 20 hrs in aerobic condition by CLSI-based broth microdilution assay
# Type: functional
# Settings: not given
row,Structure (SMILES),Ratio
1,CCCCCC#Cc1ccc(-n2ncc(/C(C)=N/NC3=NCCN3)c2C)cc1,>=1

# Tested on: Klebsiella pneumoniae
# Test: Antibacterial activity against Klebsiella pneumoniae BAA-1144 clinical isolates after 18 to 20 hrs in aerobic condition by CLSI-based broth microdilution assay
# Type: functional
# Settings: not given
row,Structure (SMILES),MIC
1,CCCCCC#Cc1ccc(-n2ncc(/C(C)=N/NC3=NCCN3)c2C)cc1,> 128 µg/mL

# Tested on: Listeria monocytogenes
# Test: Antibacterial activity against Listeria monocytogenes ATCC 19111 after 18 to 20 hrs in aerobic condition by CLSI-based broth microdilution assay
# Type: functional
# Settings: not given
row,Structure (SMILES),MIC
1,CCCCCC#Cc1ccc(-n2ncc(/C(C)=N/NC3=NCCN3)c2C)cc1,2 µg/mL

# Tested on: Pseudomonas aeruginosa
# Test: Ratio of MBC to MIC for Pseudomonas aeruginosa ATCC 25619 clinical isolates
# Type: functional
# Settings: not given
row,Structure (SMILES),Ratio
1,CCCCCC#Cc1ccc(-n2ncc(/C(C)=N/NC3=NCCN3)c2C)cc1,>=1

# Tested on: Staphylococcus aureus
# Test: Ratio of MBC to MIC for Methicillin-sensitive Staphylococcus aureus NRS107 clinical isolates
# Type: functional
# Settings: not given
row,Structure (SMILES),Ratio
1,CCCCCC#Cc1ccc(-n2ncc(/C(C)=N/NC3=NCCN3)c2C)cc1,<=2

# Tested on: Shigella flexneri
# Test: Antibacterial activity against Shigella flexneri ATCC 9199 clinical isolates after 18 to 20 hrs in aerobic condition by CLSI-based broth microdilution assay
# Type: functional
# Settings: not given
row,Structure (SMILES),MIC
1,CCCCCC#Cc1ccc(-n2ncc(/C(C)=N/NC3=NCCN3)c2C)cc1,> 128 µg/mL

# Tested on: Salmonella typhimurium
# Test: Antibacterial activity against Salmonella typhimurium ATCC 700720 after 18 to 20 hrs in aerobic condition by CLSI-based broth microdilution assay
# Type: functional, Salmonella enterica subsp. enterica serovar Typhimurium
# Settings: Salmonella enterica
row,Structure (SMILES),MIC
1,CCCCCC#Cc1ccc(-n2ncc(/C(C)=N/NC3=NCCN3)c2C)cc1,> 128 µg/mL

# Tested on: Salmonella enteritidis
# Test: Antibacterial activity against Salmonella enteritidis ATCC 13076 clinical isolates after 18 to 20 hrs in aerobic condition by CLSI-based broth microdilution assay
# Type: functional, Salmonella enterica subsp. enterica serovar Enteritidis
# Settings: Salmonella enterica
row,Structure (SMILES),MIC
1,CCCCCC#Cc1ccc(-n2ncc(/C(C)=N/NC3=NCCN3)c2C)cc1,> 128 µg/mL

# Tested on: Staphylococcus aureus
# Test: Antibacterial activity against Methicillin-resistant Staphylococcus aureus NRS385-USA500 clinical isolates after 18 to 20 hrs in aerobic condition by CLSI protocol based broth microdilution assay
# Type: functional
# Settings: not given
row,Structure (SMILES),MIC
1,CCCCCC#Cc1ccc(-n2ncc(/C(C)=N/NC3=NCCN3)c2C)cc1,2 µg/mL

# Tested on: Staphylococcus aureus
# Test: Antibacterial activity against vancomycin-resistant Staphylococcus aureus isolate 10 after 18 to 20 hrs in aerobic condition by CLSI-based broth microdilution assay
# Type: functional
# Settings: not given
row,Structure (SMILES),MIC
1,CCCCCC#Cc1ccc(-n2ncc(/C(C)=N/NC3=NCCN3)c2C)cc1,2 µg/mL

# Tested on: Salmonella enteritidis
# Test: Ratio of MBC to MIC for Salmonella enteritidis ATCC 13076 clinical isolates
# Type: functional, Salmonella enterica subsp. enterica serovar Enteritidis
# Settings: not given
row,Structure (SMILES),Ratio
1,CCCCCC#Cc1ccc(-n2ncc(/C(C)=N/NC3=NCCN3)c2C)cc1,>=1

# Tested on: Enterobacter cloacae subsp. cloacae
# Test: Ratio of MBC to MIC for Enterobacter cloacae subsp. cloacae ATCC BAA-1143 clinical isolates
# Type: functional
# Settings: not given
row,Structure (SMILES),Ratio
1,CCCCCC#Cc1ccc(-n2ncc(/C(C)=N/NC3=NCCN3)c2C)cc1,> 1

# Tested on: Escherichia coli
# Test: Antibacterial activity against Escherichia coli BW25113 clinical isolates after 18 to 20 hrs in aerobic condition by CLSI-based broth microdilution assay
# Type: functional
# Settings: not given
row,Structure (SMILES),MIC
1,CCCCCC#Cc1ccc(-n2ncc(/C(C)=N/NC3=NCCN3)c2C)cc1,> 128 µg/mL

# Tested on: Acinetobacter baumannii
# Test: Ratio of MBC to MIC for Acinetobacter baumannii NR 17785 clinical isolates
# Type: functional
# Settings: not given
row,Structure (SMILES),Ratio
1,CCCCCC#Cc1ccc(-n2ncc(/C(C)=N/NC3=NCCN3)c2C)cc1,>=1

# Tested on: Streptococcus pneumoniae
# Test: Ratio of MBC to MIC for cephalosporin-resistant Streptococcus pneumoniae ATCC 51916 clinical isolates
# Type: functional
# Settings: not given
row,Structure (SMILES),Ratio
1,CCCCCC#Cc1ccc(-n2ncc(/C(C)=N/NC3=NCCN3)c2C)cc1,<3

# Tested on: Escherichia coli
# Test: Inhibition of 6His tagged Escherichia coli UPPP expressed in Escherichia coli C41(DE3) cells preincubated for 15 mins followed by FPP substrate addition and measured after 20 mins by malachite green reagent based assay
# Settings: not given
row,Structure (SMILES),inhibition
1,CCCCCC#Cc1ccc(-n2ncc(/C(C)=N/NC3=NCCN3)c2C)cc1,inactive

# Tested on: Escherichia coli
# Test: Antibacterial activity against Escherichia coli ATCC 35150 clinical isolates after 18 to 20 hrs in aerobic condition by CLSI-based broth microdilution assay
# Type: functional
# Settings: not given
row,Structure (SMILES),MIC
1,CCCCCC#Cc1ccc(-n2ncc(/C(C)=N/NC3=NCCN3)c2C)cc1,> 128 µg/mL

# Tested on: Acinetobacter baumannii
# Test: Antibacterial activity against Acinetobacter baumannii NR 17785 clinical isolates after 18 to 20 hrs in aerobic condition by CLSI-based broth microdilution assay
# Type: functional
# Settings: not given
row,Structure (SMILES),MIC
1,CCCCCC#Cc1ccc(-n2ncc(/C(C)=N/NC3=NCCN3)c2C)cc1,> 128 µg/mL

# Tested on: Staphylococcus epidermidis
# Test: Antibacterial activity against Staphylococcus epidermidis NRS101 after 18 to 20 hrs in aerobic condition by CLSI-based broth microdilution assay
# Type: functional
# Settings: not given
row,Structure (SMILES),MIC
1,CCCCCC#Cc1ccc(-n2ncc(/C(C)=N/NC3=NCCN3)c2C)cc1,2 µg/mL

# Tested on: Escherichia coli
# Test: Ratio of MBC to MIC for Escherichia coli ATCC 25922 clinical isolates
# Type: functional
# Settings: not given
row,Structure (SMILES),Ratio
1,CCCCCC#Cc1ccc(-n2ncc(/C(C)=N/NC3=NCCN3)c2C)cc1,>=1

# Tested on: Pseudomonas aeruginosa
# Test: microbe, parasite or virus in culture
# Settings: ATCC 9027
# Description: Antibacterial activity against Pseudomonas aeruginosa ATCC 9027 clinical isolates after 18 to 20 hrs in aerobic condition by CLSI-based broth microdilution assay
row,Structure (SMILES),MIC
1,CCCCCC#Cc1ccc(-n2ncc(/C(C)=N/NC3=NCCN3)c2C)cc1,> 128 µg/mL

# Tested on: Escherichia coli
# Test: Ratio of MBC to MIC for Escherichia coli ATCC 35150 clinical isolates
# Type: functional
# Settings: not given
row,Structure (SMILES),Ratio
1,CCCCCC#Cc1ccc(-n2ncc(/C(C)=N/NC3=NCCN3)c2C)cc1,>=1

# Tested on: Acinetobacter baumannii
# Test: Ratio of MBC to MIC for Acinetobacter baumannii ATCC 19606 clinical isolates
# Type: functional, ATCC 19606 = CIP 70.34 = JCM 6841
# Settings: not given
row,Structure (SMILES),Ratio
1,CCCCCC#Cc1ccc(-n2ncc(/C(C)=N/NC3=NCCN3)c2C)cc1,>=1

# Tested on: Enterococcus faecalis
# Test: Antibacterial activity against vancomycin-resistant Enterococcus faecalis ATCC 51299 clinical isolates after 18 to 20 hrs in aerobic condition by CLSI-based broth microdilution assay
# Type: functional
# Settings: not given
row,Structure (SMILES),MIC
1,CCCCCC#Cc1ccc(-n2ncc(/C(C)=N/NC3=NCCN3)c2C)cc1,4 µg/mL

# Tested on: Salmonella typhimurium
# Test: Ratio of MBC to MIC for Salmonella typhimurium ATCC 700720 clinical isolates
# Type: functional, Salmonella enterica subsp. enterica serovar Typhimurium
# Settings: not given
row,Structure (SMILES),Ratio
1,CCCCCC#Cc1ccc(-n2ncc(/C(C)=N/NC3=NCCN3)c2C)cc1,>=1
